# Measurements from publication PMC5431190, “Investigation of cationicity and structure of pseudin-2 analogues for enhanced bacterial selectivity and anti-inflammatory activity” (Scientific Reports, 2017).
# Experiment: LPS neutralization (LAL assay)
# Format: biochemical
# Method: LPS neutralization by the peptides were measured using LAL-QCL-1000^TM (Lonza, USA) kit using a modified protocol as described previously. The interaction between each peptide and FITC-LPS was monitored according to the change in fluorescence intensity (excitation = 480 nm, emission = 515 nm). Peptides and 0.5 μg/ml FITC-LPS were prepared in 10 mM phosphate buffer (pH 6.0). The binding between rhTLR4 (from R&D systems, Minneapolis, USA) or rhMD2 (R&D systems, Minneapolis, USA) and peptides was determined using the BLItz system (ForteBio, Menlo Park, CA)[53]. A Ni-NTA sensor was used to detect rhTLR4 and rhMD2 binding. Before the binding assay, the biosensor was hydrated for 10 min in PBS. An initial baseline of 15 s, loading for 60 s, baseline for 30 s, association for 60 s and dissociation for 60 s were used for measurement.
substance,measurement,value
LL-37,LPS neutralization (control peptide),high LPS neutralization
